Source: patent US9345677B2, “Compositions, methods and kits relating to HER-2 cleavage” (Incyte Corporation, priority 2003, dated 2016)

Assays:
[1] = test system: BT474 cells; assay: Cell proliferation assay (cell counting, BrdU incorporation); type: cell-based, human; conditions: Her-2 overexpressing BT474 cells
Description: (§2) Proliferation assays were routinely performed with two protocols: cell counting and BrdU incorporation assay. For cell counting, cells (1×10^5) were seeded in each well of 12 well plates and cultured overnight. Then, cells were treated for 6 days with drugs and compounds as indicated in individual experiments. Culture media were replaced with fresh media containing the same concentrations of drugs and compounds after the first 3 days of treatment. Viable cells were counted with hemacytometers immediately after trypan blue staining.
The BrdU incorporation assay was performed using a colorimetric Cell Proliferation ELISA kit per manufacturer's instruction (#1647229, Roche Molecular Biochemicals), measuring DNA synthesis in proliferating cells. Briefly, cells (5−10×10^3) were seeded in each well of 96 well plates and cultured overnight. […] Finally, 100 μl/well of substrate solution was added and the results were obtained using a microplate reader (Spectra Max PLUS, Molecular Devices) during color development. Multiple readings at various time points were obtained and results in the linear range of the assay were obtained. […]
After varying periods of cell culture (2-6 days), the cell cultures were harvested and cell growth was assessed by cell count and BRdU incorporation using standard protocols.

[2] = test system: MCF7 cells; assay: as above; type: cell-based, human; conditions: MCF7 cells which do not overexpress Her-2
Description: as §2
The BrdU incorporation assay was performed using a colorimetric Cell Proliferation ELISA kit per manufacturer's instruction (#1647229, Roche Molecular Biochemicals), measuring DNA synthesis in proliferating cells. Briefly, cells (5−10×10^3) were seeded in each well of 96 well plates and cultured overnight. The next day, culture media were replaced with fresh media containing drugs and compounds as indicated for individual experiments. […] Finally, 100 μl/well of substrate solution was added and the results were obtained using a microplate reader (Spectra Max PLUS, Molecular Devices) during color development. Multiple readings at various time points were obtained and results in the linear range of the assay were obtained. […]

[3] = target: MMP12 (Homo sapiens, UniProt P39900); assay: MMP12 fluorogenic peptide biochemical assay
Source text: Source of enzymes for biochemical assays: Except for ADAM17 and MT1-MMP, all recombinant human MMPs and ADAMs were obtained from R&D Systems (Minneapolis, Minn.). […] MT1-MMP was obtained from US Biological (Swampscott, Mass.) with a catalog number of M2429. Porcine ADAM17 was purified in house from porcine spleen.
Substrates for biochemical assays: Fluorogenic Peptide substrate, (7-methoxycoumarin-4-yl)acetyl-Pro-Leu-Gly-Leu-(3-[2,4-dinitrophenyl]-L-2,3-diaminopropionyl)-Ala-Arg-NH2 (SEQ ID NO: 46), was obtained from R&D Systems (Minneapolis, Minn.) with a catalog number of ES001. It was used as substrate for MMP1, MMP2, MMP7, MMP8, MMP9, MMP12, MMP13, and MT1-MMP. Fluorogenic Peptide substrate, (7-methoxycoumarin-4-yl)acetyl-Arg-Pro-Lys-Pro-Val-Glu-Nva-Trp-Arg-Lys(2,4-dinitrophenyl)-NH2 (SEQ ID NO: 47), was obtained from R&D Systems with a catalog number of ES002. It was used as substrate for MMP3 and MMP10. […]
In general, 5 mM compound stock was prepared in DMSO. […] The plate was read on a plate reader with excitation of 320 nm and emission of 405 nm. Percentage of inhibition was calculated for each concentration and IC50 value was generated from curve fitting. […]

[4] = test system: Her-2 sheddase; assay: Her-2 ECD ELISA of BT474 culture supernatants (Her-2 sheddase inhibition); type: cell-based, human
Description: (§1) BT474 cells were seeded in 100 μL of RPMI medium containing 10% FCS+10 μg/ml insulin in 96 well plates at 2×10^4 cells/well. The cells were incubated overnight at 37° C. The following morning, the media was removed and 100 μL of fresh media with or without compound was added back. The cells were incubated for about 72 hours at 37° C. After about 72 hours, the supernatants were removed. The samples were diluted 1:10 and analyzed using a commercially available Her-2 ELISA kit per manufacturer's instructions (Oncogene Research, catalog #QIA 10).
These inhibitors were added, at varying concentrations, to cultures of BT474 cells, a Her-2 overexpressing breast cancer cell line known to enzymatically process cell surface Her-2 (p185) and release the extracellular domain (ECD) into the culture supernatant, i.e., shedding of ECD. After 72 hours, cell culture supernatants were harvested and assayed for Her-2 ECD content using an ELISA assay.

[5] = test system: Her-2 cleavage in BT-474 cells; assay: Western blot of Her-2 ECD (105 kDa) in culture supernatants; type: cell-based, human
[6] = test system: Her-2 cleavage in SK-BR3 cells; assay: as above; type: cell-based, human; conditions: varying concentrations
[7] = test system: AKT and ERK phosphorylation in BT474 cells; assay: Western blot of phospho-ERK and phospho-AKT; type: cell-based, human
Description: In experiments to determine the effects of MPI treatment on cell signaling, BT474 cells were plated at 1×10^5 cells/mL in 2 mL of media (RPMI+10% FCS+10 μg/mL insulin) in 12-well plates. […] After 5 days, the cells were harvested, lysed in 200 μL ice-cold lysis buffer containing 10 mM Tris, pH 7.2, 150 mM NaCl, 1% Triton X-100, 1% deoxycholic acid, 0.1% SDS, 50 μg/mL leupeptin, 50 μg/mL aprotinin, 1 mM sodium vanadate, 50 mM sodium fluoride, 1 mM PMSF. After 10 minutes on ice, the samples were microfuged at 13,000 rpm for 10 minutes at 4° C. and the supernatants collected. For analysis, 15 μL of 2× Laemmli sample buffer (BioRad, cat#161-0737) was added to 15 μL of extract, samples boiled for 5 minutes and loaded onto 12-well 12% Tris-Glycine gels (Novex, cat# EC60052). Gels were run in 1× Tris-Glycine-SDS buffer (Gibco BRL) using Novex minigel apparatus for approximately 1.5 hours. Following electrophoresis, proteins were transferred onto PVDF membrane (NEN, cat#NEF1000) in 1× Tris-Glycine buffer (Biorad, cat#161-0734) containing 20% MeOH for 2-3 hours using BioRad miniblot transfer system. After transfer, membranes were blocked in PBS+5% milk+0.1% Tween-20 for 1 h at RT. […]
Phosphorylation of AKT and the MAP kinase ERK were monitored by western blot analysis using phospho-specific antibodies.

[8] = test system: AKT and ERK phosphorylation in MCF7 cells; assay: Western blot of phospho-ERK and phospho-AKT; type: cell-based, human; conditions: Her-2 non-overexpressing MCF7 cells
[9] = test system: Her-2 cleavage in a primary breast tumor cell line that over expresses Her-2; assay: Shed Her-2 ECD in primary breast tumor cell culture; type: cell-based, human; conditions: primary breast tumor cell line over expressing Her-2
Description: Tumor specimens were obtained by Oncotech (Tustin, Calif.) according to their IRB approved protocol using standard procedures known in the art. Cell cultures were maintained in tissue culture flasks. Cells intended for experimental treatment were harvested in log phase with EDTA and were plated at a density of 1×10^5 cells/well in 24-well polystyrene plates in 0.5 ml RPMI with 10% FCS. Experiments to determine the effects of MPIs on shed Her-2 receptor were performed as described below for BT-474 cells.
as §1

Sequence of MMP12 (P39900 106-470): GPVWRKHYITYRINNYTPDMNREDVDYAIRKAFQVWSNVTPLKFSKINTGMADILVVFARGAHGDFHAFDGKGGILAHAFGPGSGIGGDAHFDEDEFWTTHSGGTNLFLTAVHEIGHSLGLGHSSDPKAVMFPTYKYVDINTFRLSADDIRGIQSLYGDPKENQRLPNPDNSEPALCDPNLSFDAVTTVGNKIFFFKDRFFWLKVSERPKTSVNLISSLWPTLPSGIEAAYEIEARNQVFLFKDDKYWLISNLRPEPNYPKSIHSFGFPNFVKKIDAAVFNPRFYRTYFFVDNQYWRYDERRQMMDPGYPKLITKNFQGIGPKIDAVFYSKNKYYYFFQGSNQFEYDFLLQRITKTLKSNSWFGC

| SMILES | effect on antiproliferative activity of a suboptimal dose of Herceptin [1] | effect on antiproliferative activity of a suboptimal dose of Herceptin [2] | IC50 [3] | Her-2 sheddase activity [4] | inhibition of Her-2 cleavage, Western blot ([5]; MPI alone, varying concentrations) | blocking Her-2 cleavage, MPI in combination with Herceptin ([5]; combination with Herceptin) | inhibition of Her-2 cleavage, Western blot [6] | phosphorylation of both AKT and ERK ([7]; sheddase inhibitor in combination with 0.2 μg/ml Herceptin) | AKT or ERK phosphorylation, single agent ([7]; sheddase inhibitor less than 5 μM alone or 0.2 μg/ml Herceptin alone) | AKT and MAP kinase pathways [8] | inhibition of Her-2 cleavage [9] | inhibition of Her-2 cleavage (ECD processing), ELISA ([4]; BT-474 cells, 72 hours) |
| --- | --- | --- | --- | --- | --- | --- | --- | --- | --- | --- | --- | --- |
| CN1CC2(CC2)C[C@H](C(=O)NO)[C@H]1C(=O)N1CCN(c2ccc(C(F)(F)F)cn2)CC1 [Compound 6] | does not enhance | does not enhance | 1.95 nM | inactive | – | – | – | – | – | – | – | – |
| COc1ccc(S(=O)(=O)N2Cc3ccccc3C[C@@H]2C(=O)NO)cc1 [Compound 4, (3R)-N-hydroxy-2-((4-methoxyphenyl)sulfonyl)-1,2,3,4-tetrahydroisoquinoline-3-carboxamide] | – | – | – | – | inhibition of Her-2 cleavage | additive effect | inhibition of Her-2 cleavage | detectable reduction in phosphorylation | did not demonstrate a detectable effect | not impacted | inhibition of Her-2 cleavage | inhibition of Her-2 cleavage |
